# From patent US6545033B1, “Fused 1-(2,6-dichloro-4-trifluoromethylphenyl)-pyrazoles, the synthesis thereof and the use thereof as pesticides” (3-Dimensional Pharmaceuticals, Inc., priority 1999, dated 2003)
# Experiments:
# [1] = target: Mouse Brain GABA Receptors; experiment: In vitro assay of binding to mouse brain GABA receptors (3H-EBOB displacement, mouse brain membranes); settings: displacement of 5.2 nM 3H-EBOB, about 45 min at about 24° C.
# Protocol: Mouse brains were obtained from carbon dioxide-asphyxiated Swiss-Webster mice, washed with phosphate-buffered saline, and used either fresh or after storage at −80° C. for up to 10 months. Unless specified, all preparation steps were performed at 0-4° C. For each preparation, 20 brains were suspended in about 40 mL of 0.32 M sucrose and homogenized for about 2 minutes, using a Tissumizer™ homogenizer equipped with a SDT-100EN probe (available from Tekmar-Dohrmann, Cincinnati, Ohio) running at 50% of its maximum speed. The extract was centrifuged for about 5 min at about 1000×g to pellet intact brain tissue. The supernatant was retained and the pellet washed with an additional 40 mL of 0.32 M sucrose and centrifuged at 1000×g for about 5 minutes. The 1000×g supernatants were combined and centrifuged at about 10,000×g for about 20 min to pellet membranes. The 10,000×g supernatant was discarded and the pellet was resuspended in about 20 mL of water containing 1 mM EDTA. The sample was dialyzed two times for about 3 hours each against about 3 L of water. The sample was then centrifuged at about 25,000×g for about 30 min to pellet the membranes. After centrifugation, the supernatant was discarded and the wet pellet recovered. The protein concentration of the pellet was determined by the Bio-Rad Protein Assay (available from Bio-Rad Laboratories, Hercules, Calif.) using bovine serum albumin as a standard. The membranes were aliquoted and stored at −80° C. for up to 6 months before use.
# Mouse brain membranes were prepared as described above from dissected mouse brains. Test compounds were dissolved in dimethylsulfoxide (DMSO) at concentrations ranging from about 2 nM to about 100 mM. About 1 μL of a dissolved test compound was dispensed into a well of a 96-well polystyrene plate. About 100 μL of ice cold assay buffer (10 mM phosphate, 300 mM NaCl, pH 7.5) containing 5.2 nM 4′-Ethynyl-4-n-[2,3-^3H2]propylbicycloorthobenzoate (^3H-EBOB, 38 Ci/mmol, available from NEN Life Science Products, Boston, Mass.) was added to the well, followed by about 100 μL of ice cold assay buffer containing about 0.25-0.5 mg/mL mouse brain membranes. Control wells were prepared the same way except that the mouse brain membranes were omitted from the “negative” wells, and the test compounds were omitted from the “positive” wells. The samples were incubated for about 45 min at about 24° C. and then filtered on a 0.1% (w/v) polyethylenimine-soaked glass fiber Filtermat A (available from EG&G Wallac Inc., Gaithersburg, Md.) followed by four 100 mL rinses of cold assay buffer using a Harvester 96® cell harvester (available from Tomtec, Orange, Conn.). The filtermat was air dried and radioactivity bound to the filtermat was detected with either a 1450 MicroBeta® Trilux scintillation counter (available from EG&G Wallac Inc.) or a Topcount NXT™ scintillation counter (available from Packard Instrument Co., Meriden, Conn.) using standard methods.
# Specific binding was considered to be the difference between total ^3H bound to the mouse brain membranes in the absence of any inhibitors and nonspecific ^3H bound to the mouse brain membranes upon the addition of 5 μM unlabeled EBOB. The average radioactivity contained in the “negative” wells was subtracted from each of the assay wells. […] Compounds that displaced ^3H-EBOB specifically bound to the mouse brain membranes were tested at 24-48 different final concentrations, varying from about 1 nM to about 125 μM, in order to determine the concentration at which 50% of the maximum inhibition due to the addition of that compound was observed (IC50). […]
# [2] = test system: houseflies (Musca domestica); experiment: In vivo housefly contact assay; settings: contact in coated glass test tube, about 24 hours; mM = concentration of the DMSO solution, about 1 μL applied
# Protocol: This example describes an in vivo assay to screen compounds for their ability to kill houseflies via contact. Newly emerged houseflies (Musca domestica, available from Rincon-Vitova Insectaries, Inc., Ventura, Calif.) were sedated with carbon dioxide gas, collected in 50 mL polypropylene conical tubes containing filter paper saturated with 10% (w/w) sucrose in water, and allowed to feed at room temperature for about 2-4 hours. Test compounds were dissolved as in dimethylsulfoxide (DMSO) at concentrations ranging from about 0.05 mM to about 100 mM. About 1 μL of dissolved test compound and about 100 μL of isopropanol were dispensed into the bottom of a 9 mL screw-top glass test tube. Positive control test tubes were prepared in the same manner except that no test compounds were dissolved in the DMSO. Each test tube was rolled to coat the sides with the chemical solution, and allowed to air dry 24-48 hours. About 20 houseflies were sedated by refrigeration at 0-4° C. and transferred to each test tube. Each test tube was sealed with organdy cloth secured by an open top screw cap and laid horizontally in the dark. After about 24 hours, the healthy, moribund, and dead houseflies in each test tube were counted. The percentage of dead houseflies in each test tube was then calculated using the formula M=100(D−(FC/100))/(F−(FC/100)), in which M is the percentage of dead houseflies due to the addition of the test compound, D is the number of dead houseflies in the test tube, F is the total number of houseflies in the test tube, and C is the percentage of dead houseflies in the control test tubes.
# [3] = test system: cat fleas (Ctenocephalides felis), CO Fleas; experiment: In vivo cat flea contact assay, CO fleas; settings: Ctenocephalides felis, topical; contact with treated filter disk in vial, about 24-30 hours; mM = concentration of the DMSO solution, about 1 μL applied; read-out: LD50 (mM), CO Fleas
# Summary of the method: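 Compound in DMSO (0.05–100 mM stock), ~1 μL dried 24–48 h on GF/C disk in sealed glass vial; ~20 newly emerged fleas added after cold sedation, held in dark. Healthy, moribund and dead fleas counted after ~24–30 h; percent mortality corrected for DMSO-only control vials.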
# [4] = test system: cat fleas (Ctenocephalides felis), NC Fleas; experiment: In vivo cat flea contact assay, NC fleas; settings: contact with treated filter disk in vial, about 24-30 hours; mM = concentration of the DMSO solution, about 1 μL applied
# Protocol: This example describes an in vivo assay to screen compounds for their ability to kill cat fleas via contact.
# Test compounds were dissolved in dimethylsulfoxide (DMSO) at concentrations ranging from about 0.05 mM to about 100 mM. About 1 μL of dissolved test compound was dispensed onto a 6 mm (diameter) GF/C filter disk (filter material available from Whatman Inc., Clifton, N.J.) in the bottom of a 4 mL screw-top glass vial and allowed to air dry 24-48 hours. Positive control vials were prepared in the same manner except that no test compounds were dissolved in the DMSO. About 20 newly emerged cat fleas (Ctenocephalides felis) were sedated by refrigeration at 0-4° C. and transferred to each vial. Each vial was sealed with a thin, perforated Teflon™ septum secured by an open top screw cap and held vertically in the dark. After about 24-30 hours, the healthy, moribund, and dead cat fleas in each vial were counted. The percentage of dead cat fleas in each vial was then calculated using the formula M=100(D−(FC/100))/(F−(FC/100)), in which M is the percentage of dead cat fleas due to the addition of the test compound, D is the number of dead cat fleas in the test vial, F is the total number of cat fleas in the test vial, and C is the percentage of dead cat fleas in the control vials.
Structure (SMILES),IC50 [1] [nM],"LD50 (mM), Flies [2] [mM]",LC50 [3] [mM],"LD50 (mM), NC Fleas [4] [mM]"
"FC(F)(F)c1cc(Cl)c(-n2cc3c(n2)CCCCC3)c(Cl)c1 [Compound 15, 2-[2,6-Dichloro-4-(trifluoromethyl)phenyl]-2,4,5,6,7,8-hexahydrocyclohepta[c]pyrazole]",30000,>100,29.5,33.5
"FC(F)(F)c1cc(Cl)c(-n2cc3c(n2)CCC3)c(Cl)c1 [Compound 11, 2-[2,6-Dichloro-4-(trifluoromethyl)phenyl]-2,4,5,6-tetrahydrocyclopenta[c]pyrazole]",1600,>100,8,7
"FC(F)(F)c1cc(Cl)c(-n2cc3c(n2)CSC3)c(Cl)c1 [Compound 3, 2-[2,6-Dichloro-4-(trifluoromethyl)phenyl]-4,6-dihydrothieno-[3,4-c]pyrazole]",2000,2.7,1.7,3.0
